Test system: skin of an inner lateral part of the upper arm of testees exposed to summer sunlight
Test: Whitening effect testing (lotion on sun-exposed skin of testees)
Assay type: in vivo, human
Conditions: blend ratio 1.0 wt %, applied twice a day for 4 weeks
Description: 66 testees were exposed to summer sunlight for 4 hours (2 hours a day for 2 days) and the skin of an inner lateral part of their upper arm was used as the subject of the test. […] The panel was divided into 11 groups with 6 persons in each group. Testing was conducted using lotion with the following formulas. [table] The water phase and the alcohol phase were prepared separately and then solubilized. The hypochromic effect after the application was evaluated based on the criteria below. ⊚: Very effective or effective on 80% or more of the testees ◯: Very effective or effective on 50% to less than 80% of the testees Δ: Very effective or effective on 30% to less than 50% testees ×: Very effective or effective on less than 30% of the testees Samples were prepared with the blend compositions described in the aforementioned test method, and the drugs listed in Table 2 were used to compare the whitening effect.

For Oc1ccc(O)cc1 [Hydroquinone], which “Effect (hypochromic effect after the application)” value is on record?
Its value is “Δ (Very effective or effective on 30% to less than 50% testees)”.
